Experimental data as given in patent USRE48335E1, “Polymyxin derivatives as antimicrobial compounds” (priority 2014, dated 2020).
Values after ≈ are worked out from the molar mass of the structure shown. Read-outs that look alike come from different tables or passages of the source. Positions of bridges follow the written chain, without caps; N, C: chain ends. Non-standard residues stand in square brackets, D forms with d. Residues, ends and D or L forms follow the SMILES beside them. *: point of attachment. X38 = O=C(c1ccc(Cl)cc1C(F)(F)F)*; Decanoyl = CCCCCCCCCC(=O)*; dNva = CCC[C@@H](N)C(=O)O; Octanoyl = CCCCCCCC(=O)*; Dab = NCC[C@H](N)C(=O)O; Abu = CC[C@H](N)C(=O)O; Dap = NC[C@H](N)C(=O)O; PhAc = O=C(Cc1ccccc1)*; X44 = O=C(c1ccccc1Cl)*

Experiments:
Pseudomonas aeruginosa = system: Pseudomonas aeruginosa
Summary of the method: (§1)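 Lipopeptide TFA salts are serially diluted in cation-adjusted Mueller-Hinton broth and inoculated per the CLSI M100-S18 broth microdilution method. The MIC is then recorded, with polymyxin B sulphate included as a control.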

Enterobacter cloacae = system: Enterobacter cloacae
Summary of the method: as §1

Acinetobacter baumannii = system: Acinetobacter baumannii
Summary of the method: as §1

Structure (SMILES) | Minimum inhibitory concentration, Pa ATCC 27853 (Pseudomonas aeruginosa; Pseudomonas aeruginosa ATCC 27853, broth microdilution in CAMHB) | Minimum inhibitory concentration, Pa FADDI-PA022 (Pseudomonas aeruginosa; Pseudomonas aeruginosa FADDI-PA022, broth microdilution in CAMHB) | Minimum inhibitory concentration, Pa FADDI-PA025 (Pseudomonas aeruginosa; Pseudomonas aeruginosa FADDI-PA025, broth microdilution in CAMHB) | Minimum inhibitory concentration, Ec FADDI-EC001 (Enterobacter cloacae; Enterobacter cloacae FADDI-EC001, broth microdilution in CAMHB) | Minimum inhibitory concentration, Ec FADDI-EC003 (Enterobacter cloacae; Enterobacter cloacae FADDI-EC003, broth microdilution in CAMHB) | Minimum inhibitory concentration, Ec FADDI-EC006 (Enterobacter cloacae; Enterobacter cloacae FADDI-EC006, broth microdilution in CAMHB) | Minimum inhibitory concentration, Ab A ATCC 17978 (Acinetobacter baumannii; Acinetobacter baumannii ATCC 17978, broth microdilution in CAMHB) | Minimum inhibitory concentration, Ab ATCC 19606 (Acinetobacter baumannii; Acinetobacter baumannii ATCC 19606, broth microdilution in CAMHB) | Minimum inhibitory concentration, Ab FADDI-AB034 (Acinetobacter baumannii; Acinetobacter baumannii FADDI-AB034, broth microdilution in CAMHB) | Minimum inhibitory concentration, Pa ATCC 27853 (Pseudomonas aeruginosa) | Minimum inhibitory concentration, Pa FADDI-PA022 (Pseudomonas aeruginosa) | Minimum inhibitory concentration, Pa FADDI-PA025 (Pseudomonas aeruginosa) | Minimum inhibitory concentration, Ec FADDI-EC001 (Enterobacter cloacae) | Minimum inhibitory concentration, Ec FADDI-EC003 (Enterobacter cloacae) | Minimum inhibitory concentration, Ec FADDI-EC006 (Enterobacter cloacae) | Minimum inhibitory concentration, Ab A ATCC 17978 (Acinetobacter baumannii) | Minimum inhibitory concentration, Ab ATCC 19606 (Acinetobacter baumannii) | Minimum inhibitory concentration, Ab FADDI-AB034 (Acinetobacter baumannii)
CC(C)C[C@H]1NC(=O)[C@H](CCN)NC(=O)[C@@H](NC(=O)[C@@H](CO)NC(=O)[C@@H](NC(=O)[C@H](CCN)NC(=O)Cc2ccccc2)[C@@H](C)O)CCNC(=O)[C@H]([C@@H](C)O)NC(=O)[C@H](CCN)NC(=O)[C@H](CCN)NC(=O)[C@H]([C@@H](C)O)NC1=O [Compound 12] (PhAc-[Dab]T[dS][Dab][Dab][dL]T[Dab][Dab]T; lactam 4-C) | >32 µg/mL | 8 µg/mL (≈ 7.13 µM) | >32 µg/mL | 0.25 µg/mL (≈ 0.223 µM) | 0.5 µg/mL (≈ 0.446 µM) | 1 µg/mL (≈ 0.891 µM) | 4 µg/mL (≈ 3.56 µM) | 4 µg/mL (≈ 3.56 µM) | 4 µg/mL (≈ 3.56 µM) | – | – | – | – | – | – | – | – | –
CC[C@@H]1NC(=O)[C@@H](CC(C)C)NC(=O)[C@H](CCN)NC(=O)[C@@H](NC(=O)[C@H](CN)NC(=O)[C@@H](NC(=O)[C@H](CCN)NC(=O)c2ccccc2Cl)[C@@H](C)O)CCNC(=O)[C@H]([C@@H](C)O)NC(=O)[C@H](CCN)NC(=O)[C@H](CCN)NC1=O [Compound 72] (X44-[Dab]T[Dap][Dab][Dab][dL][Abu][Dab][Dab]T; lactam 4-C) | – | – | – | – | – | – | – | – | – | 0.5 µg/mL (≈ 0.444 µM) | 0.5 µg/mL (≈ 0.444 µM) | 4 µg/mL (≈ 3.55 µM) | 0.5 µg/mL (≈ 0.444 µM) | 0.25 µg/mL (≈ 0.222 µM) | 0.5 µg/mL (≈ 0.444 µM) | 4 µg/mL (≈ 3.55 µM) | 8 µg/mL (≈ 7.11 µM) | 4 µg/mL (≈ 3.55 µM)
CCCCCCCCCC(=O)N[C@@H](CCN)C(=O)N[C@H](C(=O)N[C@@H](CCN)C(=O)N[C@H]1CCNC(=O)[C@H]([C@@H](C)O)NC(=O)[C@H](CCN)NC(=O)[C@H](CCN)NC(=O)[C@H](C(C)C)NC(=O)[C@@H](CC(C)C)NC(=O)[C@H](CCN)NC1=O)[C@@H](C)O [Compound 41] (Decanoyl-[Dab]T[Dab][Dab][Dab][dL]V[Dab][Dab]T; lactam 4-C) | – | – | – | – | – | – | – | – | – | 1 µg/mL (≈ 0.855 µM) | 4 µg/mL (≈ 3.42 µM) | 2 µg/mL (≈ 1.71 µM) | 1 µg/mL (≈ 0.855 µM) | 0.5 µg/mL (≈ 0.428 µM) | 0.5 µg/mL (≈ 0.428 µM) | 1 µg/mL (≈ 0.855 µM) | 1 µg/mL (≈ 0.855 µM) | 0.5 µg/mL (≈ 0.428 µM)
CCCCCCCC(=O)N[C@@H](CCN)C(=O)N[C@H](C(=O)N[C@@H](CN)C(=O)N[C@H]1CCNC(=O)[C@H]([C@@H](C)O)NC(=O)[C@H](CCN)NC(=O)[C@H](CCN)NC(=O)[C@H]([C@@H](C)O)NC(=O)[C@@H](CCC)NC(=O)[C@H](CCN)NC1=O)[C@@H](C)O [Compound 49] (Octanoyl-[Dab]T[Dap][Dab][Dab][dNva]T[Dab][Dab]T; lactam 4-C) | – | – | – | – | – | – | – | – | – | 0.5 µg/mL (≈ 0.448 µM) | 0.25 µg/mL (≈ 0.224 µM) | 16 µg/mL (≈ 14.3 µM) | 0.5 µg/mL (≈ 0.448 µM) | 0.5 µg/mL (≈ 0.448 µM) | 0.25 µg/mL (≈ 0.224 µM) | 0.5 µg/mL (≈ 0.448 µM) | 1 µg/mL (≈ 0.897 µM) | 0.5 µg/mL (≈ 0.448 µM)
CC[C@@H]1NC(=O)[C@@H](CC(C)C)NC(=O)[C@H](CCN)NC(=O)[C@@H](NC(=O)[C@H](CN)NC(=O)[C@@H](NC(=O)[C@H](CCN)NC(=O)c2ccc(Cl)cc2C(F)(F)F)[C@@H](C)O)CCNC(=O)[C@H]([C@@H](C)O)NC(=O)[C@H](CCN)NC(=O)[C@H](CCN)NC1=O [Compound 136] (X38-[Dab]T[Dap][Dab][Dab][dL][Abu][Dab][Dab]T; lactam 4-C) | – | – | – | – | – | – | – | – | – | 0.5 µg/mL (≈ 0.419 µM) | 2 µg/mL (≈ 1.68 µM) | 1 µg/mL (≈ 0.838 µM) | <0.125 µg/mL | <0.125 µg/mL | 0.25 µg/mL (≈ 0.209 µM) | 0.5 µg/mL (≈ 0.419 µM) | 0.5 µg/mL (≈ 0.419 µM) | 0.25 µg/mL (≈ 0.209 µM)
